This is an account of results in US8846705B2, “Diaminopyrimidines as P2X3 and P2X2/3 antagonists” (Roche Palo Alto LLC, priority 2004, dated 2014).

Usually melting point stands for the temperature, or range, at which the solid turns liquid. One may read the IC50 as the point on the concentration scale where inhibition reaches its midpoint. Read a low IC50 as inhibition by little substance.

SMILES strings stand for the structures. Counter-ions that a name gives are not always drawn.

Tested on in one series: not given
Assay: not given
With `Cc1nc2c(C)cc(Oc3cnc(N)nc3N)c(C(C)C)c2o1` (as salt: hydrochloride) [Example 66, 5-(7-Isopropyl-2,4-dimethyl-benzooxazol-6-yloxy)-pyrimidine-2,4-diamine], the melting point was more than 300 °C.

For `COc1cc(C(C)C)c(Oc2cnc(N)nc2N)cc1-c1ccco1` [Example 59, 5-(5-Furan-2-yl-2-isopropyl-4-methoxy-phenoxy)-pyrimidine-2,4-diamine], the melting point was 253.7 to 254.6 °C.

In the case of `CNC(=O)OC[C@@H](C)Nc1ncc(Oc2cc(Cl)c(OC)cc2C(C)C)c(N)n1` (stereo in doubt) [Example 7, Methyl-carbamic acid 2-[4-amino-5-(5-chloro-2-isopropyl-4-methoxy-phenoxy)-pyrimidin-2-ylamino]-propyl ester], the melting point was 63.5 to 69.4 °C.

Turning to `COc1cc(C(C)C)c(Oc2cnc(N[C@H](C)CO)nc2N)cc1Cl` (as salt: hydrochloride) [Compound 120, 2-[4-Amino-5-(5-chloro-2-isopropyl-4-methoxy-phenoxy)-pyrimidin-2-ylamino]-(R)-propan-1-ol], the melting point lay within 111.4 to 116.9 °C.

As for `CCc1c(Oc2cnc(N)nc2N)cc(C)c2sccc12` [Example 62, 5-(4-Ethyl-7-methyl-benzo[b]thiophen-5-yloxy)-pyrimidine-2,4-diamine], the melting point was found to be 181 °C.

As to `Cc1c(C(=O)O)[nH]c2cc(Oc3cnc(N)nc3N)c(C(C)C)cc12` [Example 64, 6-(2,4-Diamino-pyrimidin-5-yloxy)-5-isopropyl-3-methyl-1H-indole-2-carboxylic acid], the melting point is more than 300 °C.

Compound `Cc1cn(C)c2cc(C(F)(F)F)c(Oc3cnc(N)nc3N)cc12` (as salt: hydrochloride) [Example 63, 5-(1,3-Dimethyl-6-trifluoromethyl-1H-indol-5-yloxy)-pyrimidine-2,4-diamine] returned a melting point of 256 °C.

For the compound `COc1cc(C(C)C)c(Oc2cnc(N)nc2N)cc1-c1ncon1` (as salt: trifluoroacetic acid salt) [Example 57, 5-(2-Isopropyl-4-methoxy-5-[1,2,4]oxadiazol-3-yl-phenoxy)-pyrimidine-2,4-diamine], the melting point lay within 135 to 138.5 °C.

The compound `COc1cc(C(C)C)c(Oc2cnc(N)nc2N)cc1N1CCN(S(C)(=O)=O)CC1` [Example 61, 5-[2-Isopropyl-5-(4-methanesulfonyl-piperazin-1-yl)-4-methoxy-phenoxy]-pyrimidine-2,4-diamine] showed a melting point of 115 to 117 °C.

For the compound `CC(C)c1cc2c(cc1Oc1cnc(N)nc1N)OCCN2C` [Example 58, 5-(6-Isopropyl-4-methyl-3,4-dihydro-2H-benzo[1,4]oxazin-7-yloxy)-pyrimidine-2,4-diamine], the melting point fell in the range of 167.3 to 170.1 °C.

In another series the target is T1, rat P2X3 receptor (Rattus norvegicus, UniProt P49654).
T1 sequence (P49654 1-397): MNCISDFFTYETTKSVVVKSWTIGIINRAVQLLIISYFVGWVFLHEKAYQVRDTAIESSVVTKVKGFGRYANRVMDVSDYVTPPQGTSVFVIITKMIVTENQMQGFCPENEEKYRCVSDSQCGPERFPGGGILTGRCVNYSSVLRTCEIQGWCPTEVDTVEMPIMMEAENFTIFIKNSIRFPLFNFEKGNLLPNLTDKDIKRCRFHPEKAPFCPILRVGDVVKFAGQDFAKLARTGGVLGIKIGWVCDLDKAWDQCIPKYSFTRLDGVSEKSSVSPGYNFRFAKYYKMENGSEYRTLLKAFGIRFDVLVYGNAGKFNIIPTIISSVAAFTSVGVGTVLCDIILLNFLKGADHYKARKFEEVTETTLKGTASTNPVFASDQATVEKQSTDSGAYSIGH
The series is described as follows: cell-based.
Protocol: P2X3/P2X2/3 FLIPR (Fluorometric Imaging Plate Reader) Assay
CHO-K1 cells were transfected with cloned rat P2X3 or human P2X2/3 receptor subunits and passaged in flasks. 18-24 hours before the FLIPR experiment, cells were released from their flasks, centrifuged, and resuspended in nutrient medium at 2.5×10^5 cells/ml. The cells were aliquoted into black-walled 96-well plates at a density of 50,000 cells/well and incubated overnight in 5% CO2 at 37° C. On the day of the experiment, cells were washed in FLIPR buffer (calcium- and magnesium-free Hank's balanced salt solution, 10 mM HEPES, 2 mM CaCl2, 2.5 mM probenecid; FB). […]
Test compounds (dissolved in DMSO at 10 mM and serially diluted with FB) or vehicle were added to each well (25 μl of a 4× solution) and allowed to equilibrate for 20 minutes at room temperature. The plates were then placed in the FLIPR and a baseline fluorescence measurement (excitation at 488 nm and emission at 510-570 nm) was obtained for 10 seconds before a 100 μl/well agonist or vehicle addition. […] Fluorescence was measured for an additional 2 minutes at 1 second intervals after agonist addition. A final addition of ionomycin (5 μM, final concentration) was made to each well of the FLIPR test plate to establish cell viability and maximum fluorescence of dye-bound cytosolic calcium. […]
Turning to `COc1cc(C)c(Cc2cnc(N)nc2N)cc1OC` [5-(4,5-Dimethoxy-2-methyl-benzyl)-pyrimidine-2,4-diamine], the IC50 is more than 10000 nM.

For `CC(C)c1cc(O)c(I)cc1Oc1cnc(N)nc1N` [4-(2,4-Diamino-pyrimidin-5-yloxy)-2-iodo-5-isopropyl-phenol], the IC50 is approximately 5.01 nM.
